The results in this text go back to paper PMC9401038 (Angewandte Chemie (International Ed. in English), 2022).

Data set [1] concerns zebrafish larvae cardiac rhythm. Briefly: Cardiac frequency monitoring in zebrafish larvae under dark/380 nm/550 nm. Type of data set: in vivo. The conditions noted are these: 10 μM, 7 dpf larvae, dark and both illumination conditions equivalent.
The target of another data set is β1‐AR (Homo sapiens, UniProt P08588). Briefly: β1‐AR functional cAMP assay. Type of data set: cell-based. Background: Changes in cAMP serve as a functional read-out for many G protein-coupled receptors.
Data set [2] is described as follows: UV/Vis photochemical characterization. The data set is classed as physicochemical.
Data set [3] in a line: Photostationary state quantification by 1H‐NMR. Type of data set: physicochemical. To be noted: 12 °C, 100 μM in D2O.
A further data set concerns the target β2‐AR (Homo sapiens, UniProt P07550). Briefly: β2‐AR inhibition of cimaterol-stimulated cAMP in HEK293 H188 M1 cells. To be noted: in the dark and upon illumination at 380 nm, cimaterol 3 nM.
The mark [4] stands for this setting: 50 μM in Epac buffer+0.5 % DMSO, 25–28 °C.

“And” between values parts separate entries of the source, which are not always exact repeats. Equal entries are not always repeated.

β1‐AR, sequence (P08588 whole entry): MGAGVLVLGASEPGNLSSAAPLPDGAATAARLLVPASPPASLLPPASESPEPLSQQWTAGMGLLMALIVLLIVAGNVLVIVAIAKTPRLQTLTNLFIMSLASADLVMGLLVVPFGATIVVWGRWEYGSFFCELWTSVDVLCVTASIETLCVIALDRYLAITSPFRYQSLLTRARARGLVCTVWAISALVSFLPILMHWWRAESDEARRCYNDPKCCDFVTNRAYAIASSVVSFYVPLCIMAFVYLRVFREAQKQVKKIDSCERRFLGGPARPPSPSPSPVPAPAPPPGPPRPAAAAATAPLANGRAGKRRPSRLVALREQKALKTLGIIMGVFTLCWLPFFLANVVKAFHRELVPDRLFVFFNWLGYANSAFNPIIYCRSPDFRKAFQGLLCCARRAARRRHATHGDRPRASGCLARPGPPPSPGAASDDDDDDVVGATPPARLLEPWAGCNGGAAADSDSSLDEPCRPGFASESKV
β2‐AR, sequence (P07550 whole entry): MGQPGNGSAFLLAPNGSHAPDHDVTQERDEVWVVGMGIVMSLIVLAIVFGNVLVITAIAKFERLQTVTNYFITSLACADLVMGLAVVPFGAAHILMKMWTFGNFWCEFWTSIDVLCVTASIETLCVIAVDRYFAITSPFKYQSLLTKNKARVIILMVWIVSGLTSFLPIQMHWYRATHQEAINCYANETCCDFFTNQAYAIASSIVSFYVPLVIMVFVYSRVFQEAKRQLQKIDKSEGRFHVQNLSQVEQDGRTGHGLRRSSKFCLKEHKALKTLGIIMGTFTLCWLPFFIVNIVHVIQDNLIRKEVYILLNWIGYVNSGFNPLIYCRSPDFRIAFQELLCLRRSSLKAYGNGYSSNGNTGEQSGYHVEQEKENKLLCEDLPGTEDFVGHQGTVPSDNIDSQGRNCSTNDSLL

For `COc1ccccc1OCCNCC(O)COc1cccc2[nH]c3ccccc3c12` (stereo not drawn) [Carvedilol, carvedilol], the cardiac rhythm result in data set [1] is on record as “significant reduction in the cardiac rhythm”.

With `CC(C)NC[C@H](O)COc1ccc(/N=N/c2ccccc2)cc1` [pAzo‐1], the EC50 at β1‐AR (EC50 DARK, dark (trans isomer)) is 15.1 nM; on β1‐AR (EC50 LIGHT, constant violet light 380 nm (cis isomer)), 331 nM. On β1‐AR (dark, ratio of 1 implies no selectivity towards β1‐AR), the “β1/β2 ratio DARK” value was found to be 161.8. For the same compound, the “functional profile towards β1‐AR” value at β1‐AR (two β1‐AR expression levels) is “low efficacy partial agonists”. For the same compound, the “β1/β2 ratio LIGHT” value on β1‐AR (violet light 380 nm, ratio of 1 implies no selectivity) is reported as 8.6. Besides, the “PPS (Photoinduced Potency Shift)” value on β1‐AR (β1‐AR, relation between EC50 in light and dark) is reported as 20.08. For the same compound, the τ cis→trans in data set [2] worked out at 57.6 s⁻¹. Further, the “λ n‐π* (cis)” value in data set [2] (setting [4]) is on record as 430 nm. Also, in data set [2] (setting [4]), the “λ π‐π* (trans)” value turned out to be 346 nm. Besides, in data set [2] (50 μM in Epac buffer+0.5 % DMSO, 28 °C, after 3 min 365 nm), the “t 1/2 (thermal relaxation of cis isomer)” value was 67.6 h. Besides, in data set [2] (365 nm, CoolLED 5 % intensity (0.1 mW mm^−2), 50 μM in Epac buffer+0.5 % DMSO), the τ trans→cis turned out to be 4.4 s⁻¹. In data set [3] (after 365 nm illumination), this compound showed a PSS365 of 95 %cis. In data set [3] (after 525 nm illumination), the PSS530 was 76.3 % trans and 76 % trans. Besides, the “IC50 values against β2‐AR” value on β2‐AR is reported as “within the μM range”.

As a reminder, the EC50 is the midpoint of the concentration-response curve. Read a high EC50 as weaker potency.
